Literature values, collected in patent US9844530B1, “Ophthalmic solutions for glaucoma and conjunctivitis treatment” (Axim Biotechnologies, Inc., priority 2014, dated 2017).

Test system: various Staphylococcus aureus strains
Conditions: background statement

For C=C(C)[C@@H]1CCC(C)=C[C@H]1c1c(O)cc(CCCCC)cc1O [Cannabidiol], the minimum inhibitory concentration is given as 0.5 to 1 µg/mL.
